One series relates to AβOs. The experiment in a line: Size of AβOs formed, molecular weight cutoff filters of 50 and 100 kDa. Particulars: 50 and 100 kDa cutoff filters; conflicting results from different blots. The source says: Another area of investigation this quarter was the effect of NU-9 on the formation of different sizes of AβOs. Evidence from animal models and human samples indicate that that some species of AβOs are more toxic than others, and specifically that higher molecular weight oligomers (>50 kDa) may include the most Aβ-relevant species^15-16. To investigate whether NU-9 reduced the formation of high-molecular weight AβOs, I carried out several experiments using molecular weight cutoff filters of 50 and 100 kDa. However, conflicting results were obtained from different blots. […] The use of sufficient bioreplicates and thorough mixing is important for these experiments. These experiments may be revisited in the future, or the question of the type of AβOs targeted could be addressed through proteomics.

The next series addresses cathepsin B (Homo sapiens, UniProt P07858). As to the kind of experiment: Purified cathepsin B enzyme activity (Z-RR-AMC to 7-AMC). It is filed as biochemical. Particulars: NU-9 0.0003-30 μM. The procedure: FIG. 28. A) 0.0003-30 μM NU-9 was combined with purified cathepsin B enzyme in the presence of the cathepsin B substrate Z-RR-AMC. Cathepsin B enzyme activity was measured by the rate of 7-AMC production by fluorescence. Percent change in rate with NU-9 was quantified in the graph. […] B) Mature hippocampal neurons were treated with NU-9 for 30 minutes, then Magic Red was used to monitor intracellular cathepsin L activity. Cells were treated in 3 wells.

The subject of another series is 5×FAD mice. The experiment in a line: Memory performance (novel object preference) in 5×FAD mice. The series is classed as in vivo. As for the experimental part:
FIG. 7. […] Preliminary results obtained in 11 month old mice treated with NU-9 for 4 weeks. Memory performance was evaluated before and after treatment with vehicle or NU-9.
In a preliminary experiment using a mouse model of Alzheimer's disease, NU-9 protected against memory loss. Twelve 5×FAD mice were bred on the slow-onset background. These animals received either vehicle control or NU-9 by gavage (20 mg/kg) daily for one month. In the control group, all animals failed the memory task, showing no preference for the novel object. […] (FIG. 7).

The target of series [1] is T1, intracellular cathepsin L activity (Rattus norvegicus, UniProt P07154).
T1 construct: endogenous in cells
T1 sequence (P07154 114-334): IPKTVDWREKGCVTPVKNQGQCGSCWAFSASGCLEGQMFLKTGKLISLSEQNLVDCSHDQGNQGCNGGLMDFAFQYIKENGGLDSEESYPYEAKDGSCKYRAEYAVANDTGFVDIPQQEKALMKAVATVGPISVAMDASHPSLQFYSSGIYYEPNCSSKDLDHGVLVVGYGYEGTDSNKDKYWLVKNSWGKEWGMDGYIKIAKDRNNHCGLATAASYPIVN
As to the kind of experiment: Intracellular cathepsin L activity in hippocampal neurons (Magic Red). The series is classed as cell-based. The conditions noted are these: hippocampal neurons treated with NU-9 30 minutes. The procedure:
(§1) FIG. 26. A) 0.0003-150 μM NU-9 was combined with purified cathepsin L enzyme in the presence of the cathepsin L substrate Z-FR-AMC. Cathepsin L enzyme activity was measured by the rate of 7-AMC production by fluorescence. Percent change in rate was quantified in the graph. […] B) Mature hippocampal neurons were treated with NU-9 for 30 minutes, then Magic Red was used to monitor intracellular cathepsin L activity. Cells were treated in 3 wells, and 9-22 images were analyzed per condition.
(§2) No effect of 0.0003-150 μM NU-9 was observed on the cathepsin L activity as measured by the production rate of 7-AMC from Z-FR-AMC by purified cathepsin L enzyme.

The next series deals with acidic lysosomes. As to the kind of experiment: Lysotracker labelling of acidic compartments in hippocampal neurons. It is filed as cell-based, rat. The conditions noted are these: 3 μM NU-9, 30-minute treatment. As for the experimental part:
FIG. 24. Mature E18 hippocampal neurons were treated 3 μM NU-9, and subsequently labelled with lysotracker. A) total immunofluorescence (integrated density), B) mean intensity, C) average size of acidic compartments, D) number of acidic compartments.

The target in another series is cathepsin L (Homo sapiens, UniProt P07711). As to the kind of experiment: Purified cathepsin L enzyme activity (Z-FR-AMC to 7-AMC). The series is classed as biochemical. The conditions noted are these: 0.0003-150 μM NU-9. As for the experimental part: as §1, §2
Sequence of cathepsin L (P07711 114-333, species assumed): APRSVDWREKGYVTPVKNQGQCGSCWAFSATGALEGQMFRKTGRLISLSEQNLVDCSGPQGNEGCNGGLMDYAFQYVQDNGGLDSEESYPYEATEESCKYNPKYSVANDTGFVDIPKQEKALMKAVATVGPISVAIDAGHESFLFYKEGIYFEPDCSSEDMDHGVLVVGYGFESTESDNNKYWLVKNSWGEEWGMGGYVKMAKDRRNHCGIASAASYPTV
The test system of a further series is total Aβ species. As to the kind of experiment: Total Aβ species in neuronal cultures (6E10 immunofluorescence). The series is classed as cell-based, rat. The conditions noted are these: NU-9 3 μM, 30 min, then Aβ monomer 500 nM. The procedure:
FIG. 12. […] Mature hippocampal neurons were treated with NU-9 (3 μM, 30 min), then with Aβ monomer (500 nM, 30 min). These were labelled with 6E10 (anti-total Aβ, green) and MAP2 (anti-dendrite). Total number of Aβ particles per images as well as fluorescence intensity of Aβ signal (IntDen) was quantified).
To follow up on this, we treated neurons with NU-9 (3 μM, 30 min) followed by Aβ monomer (500 nM, 30 min) and attempted to observe total Aβ species by dot blot. […] So, instead of using dot blot, we used immunofluorescence, labelling treated neurons for total Aβ species. Using this protocol, we were able to avoid interaction of the antibody with cell culture media, allowing for specific labelling.

Series [2] deals with AβOs bound to neurons. The experiment in a line: AβOs bound to dendrites of hippocampal neurons treated with Aβ42 monomer (immunofluorescence, NU2/NU4). The series is classed as cell-based, rat.
Series [3] relates to AβOs bound to neurons. Described as above. The series is classed as cell-based, rat. As for the experimental part:
Neurons were pre-treated with 3 μM NU-9 for 30 min, then treated with Aβ42 monomer for 24 hr. Cells were fixed with 3.7% formaldehyde and stained for AβOs (NU4, green), tau phosphorylated at Ser396 (pSer396, red) and mounted on slides before imaging.
Cells were fixed with 3.7% formaldehyde and stained for AβOs (NU4, green), tau phosphorylated at Thr205 (pThr205, red), and nuclei (DAPI, blue) and mounted on slides before imaging.
FIG. 3. Neurons were pre-treated with 3 μM NU-9 for 30 min, then treated with Aβ42 monomer for 30 min. Cells were fixed with 3.7% formaldehyde and stained for AβOs (NU2, green), β-II tubulin (TUBB3, red), and nuclei (DAPI, blue) and mounted on slides before imaging.
FIG. 4. E18 hippocampal neurons were cultured until 21 div and pre-treated with 3, 15, or 30 μM NU-9 for 30 minutes, followed by treatment with 500 nM Aβ42 for 30 minutes. Cells were fixed with 3.7% formaldehyde and stained for AβOs (NU2, green), […] (red) and nuclei (DAPI, blue), and mounted on slides before imaging at 63×.
NU-9 reduces the number of amyloid beta oligomers bound to neurites. Primary rat hippocampal neurons in cell culture were pre-treated with NU-9 for 30 minutes and then treated with amyloid beta 1-42 (Aβ) monomer. […] To characterize the dose-response effect of NU-9 on AβO formation, cells were pretreated with increasing doses of NU-9 (3, 15, and 30 μM), and then treated with Aβ for 30 minutes.
The decrease was 81% (p=0.0005). We further characterized the effect of NU-9, to narrow down potential candidate mechanisms for this effect.
This is another data set of the same source.

Where “and” joins values, the source holds several entries; their conditions need not be identical. Equal values may be shown once. Entries after “also recorded” stand apart in the source; their conditions may differ.

Take `C[C@H](Oc1cc(C(F)(F)F)cc(C(F)(F)F)c1)C1CC(=O)CC(=O)C1` [NU-9, (S)-5-(1-(3,5-bis(trifluoromethyl)phenoxy)ethyl)cyclohexane-1,3-dione]: in the series on AβOs, the “change in AβO size species” value is “reduction in 50-100 kDa species was observed, alongside an increase in small species (<50 kDa); also recorded: reduction in most species was observed, except in small species (<50 kDa)”. Also, the “cathepsin B activity (cleavage of Z-RR-AMC to 7-AMC)” value at cathepsin B is given as “Minimal effect”. In addition, in the series with 5×FAD mice (5×FAD mice treated with vehicle or NU-9 for 4 weeks), the “motor and exploratory behavior” value is “normal motor and exploratory behavior”. Moreover, the “protection against memory loss (preference for novel object)” value in the series on 5×FAD mice (5×FAD mice, 11 month old, 20 mg/kg by gavage daily for one month, preliminary, 20 mg/kg) is listed as “mitigated memory loss; also recorded: three of the four mice were protected from memory loss; also recorded: mitigates memory loss in older 5×FAD mice”. In addition, the “intracellular cathepsin L activity” value in series [1] is given as “not observed to modulate intracellular cathepsin L activity”. Further, in the series on acidic lysosomes, the “lysosome number, size, and acidity” value is “unchanged”. Besides, the “cathepsin L activity (production rate of 7-AMC from Z-FR-AMC)” value on cathepsin L is “No effect”. In the series on total Aβ species, the “total Aβ species (particles, IntDen)” value is “does not reduce total Aβ species observable in neuronal cultures”. The “effect of NU-9 on neuron-binding AβOs in the presence of lysosome inhibitor” value with AβOs bound to neurons [2] (100 nM bafilomycin A 30 min, NU-9 3 μM 30 min, Aβ monomer 500 nM 30 min) is “unable to do so; also recorded: abolished in the presence of a lysosome acidification inhibitor”. Besides, the “AβOs bound to dendrites when NU-9 is washed out prior to Aβ monomer” value in the series with AβOs bound to neurons [2] (NU-9 pre-treatment, washout, then Aβ 500 nM, 30 min) is recorded as “leads to a reduction in AβOs bound to dendrites; also recorded: maintained even when NU-9 was washed out; also recorded: reduced the number of AβOs bound to dendrites; also recorded: remains effective even when it is washed out”. The “number of AβOs bound at dendrites” value in the series with AβOs bound to neurons [3] (3 μM NU-9 pre-treatment 30 min, then Aβ42 monomer 24-26 hr) was “significantly decreased the number of AβOs bound at dendrites; also recorded: able to reduce AβO binding in neurons treated with Aβ monomer”. In the series on AβOs bound to neurons [3] (3 μM NU-9 pre-treatment 30 min, then Aβ monomer 500 nM, 30 min), the “AβOs bound to neurons / formation of neuron-binding AβOs” value is “mitigated the formation of neuron-binding AβOs; also recorded: significantly reduced AβOs bound to neurons; also recorded: significantly reduced the formation of neuron binding AβOs”. Also, the “dose-response of AβO suppression (visual analysis of images)” value in the series with AβOs bound to neurons [3] (3, 15, or 30 μM NU-9 30 min, then 500 nM Aβ42 30 min) is on record as “reduced more extensively at higher doses of NU-9; also recorded: More extensive suppression of AβOs was observed at higher concentrations of NU-9”. In addition, the “reduction in AβOs at synapses compared to treatment with Aβ monomer alone” value in the series on AβOs bound to neurons [3] (NU-9 3 μM, 30 min prior to Aβ monomer 500 nM, 30 min or 24 h) was 81% and 55-80%. The “number of AβOs bound to neurons” value in the series on AβOs bound to neurons [3] (NU-9 30 min pre-treatment, Aβ monomer 30 min or 24 h) is on record as “reduces the number of bound amyloid beta oligomers; also recorded: dramatically decreased the number of Aβ oligomers (AβOs) bound to neurons; also recorded: marked reduction in AβOs at synapses; also recorded: effectively reduced the number of pathological species of AβOs”.
